Data on 1 compound can be found in PMC6346587, “Glucose 6-phosphate dehydrogenase 6-phosphogluconolactonase: characterization of the Plasmodium vivax enzyme and inhibitor studies” (Malaria Journal, 2019).

Data set [1] deals with P. falciparum 3D7. As to the kind of experiment: [3H]-hypoxanthine incorporation assay on asexual blood stages. The settings on record: 72 h [3H]-hypoxanthine incorporation assay. The format is cell-based, Plasmodium falciparum.
Data set [2] has as its system human hepatocyte cell lines. Set-up: method as in PMID 24501782. The settings on record: cited from earlier work.
In data set [3] the test system is P. falciparum 3D7. The settings on record: chloroquine-sensitive strain; cited from earlier work.
In the next data set the target is T1, hG6PD (Homo sapiens, UniProt P11413).
T1 construct: made in house
T1 sequence (P11413 whole entry): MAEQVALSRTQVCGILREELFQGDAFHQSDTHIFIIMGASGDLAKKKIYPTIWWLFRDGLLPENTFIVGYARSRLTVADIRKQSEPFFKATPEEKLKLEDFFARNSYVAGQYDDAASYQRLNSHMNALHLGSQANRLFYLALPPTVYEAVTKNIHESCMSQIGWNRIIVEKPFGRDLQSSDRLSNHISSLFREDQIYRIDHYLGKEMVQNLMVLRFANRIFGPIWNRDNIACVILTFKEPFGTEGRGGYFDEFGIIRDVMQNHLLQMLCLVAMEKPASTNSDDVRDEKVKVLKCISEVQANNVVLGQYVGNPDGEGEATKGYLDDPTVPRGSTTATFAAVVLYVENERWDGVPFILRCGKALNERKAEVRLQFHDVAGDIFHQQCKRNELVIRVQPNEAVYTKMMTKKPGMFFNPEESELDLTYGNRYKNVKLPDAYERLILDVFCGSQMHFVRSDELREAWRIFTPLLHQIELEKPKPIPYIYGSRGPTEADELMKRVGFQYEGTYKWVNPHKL
As to conditions: ML304; read-out: IC50 on human G6PD; cited from earlier work.

The target of another data set is PvG6PD (Plasmodium vivax, UniProt A5K3M1). As to the kind of experiment: PvG6PD enzyme inhibition assay (NADPH formation, absorbance 340 nm / fluorescence). The format is biochemical. The settings on record: for IC50: read-out: IC50 on PvG6PD. How it is done: The G6PD activity of PfGluPho variants was measured spectrophotometrically as described for the wt enzyme. Kinetic characterization of PvG6PD was performed using the same assay system at an Evolution 300 spectrophotometer (Thermo Scientific, Dreieich, Germany). In brief, the initial reduction of NADP^+ to NADPH by PvG6PD was monitored by measuring the absorbance at 340 nm. The 500 µL reaction mixture contained 200 µM NADP^+ and varying concentrations of PvG6PD in an assay buffer of 100 mM Tris–HCl, pH 8.0, 10 mM MgCl2, and 0.5 mM EDTA at 25 °C. The reaction was started by adding 800 µM G6P. The KM for NADP^+ was determined by titrating NADP^+ from 2 to 400 µM at 800 µM G6P; the KM for G6P was measured accordingly by titrating G6P from 2 to 1200 µM at 200 µM NADP^+. KM values were calculated using GraphPad Prism. Since the KM for G6P was considerably higher than the value measured for PfGluPho [14], a concentration of 800 µM G6P was defined as substrate saturation for PvG6PD.
PvG6PD, sequence (A5K3M1 entry or part of it): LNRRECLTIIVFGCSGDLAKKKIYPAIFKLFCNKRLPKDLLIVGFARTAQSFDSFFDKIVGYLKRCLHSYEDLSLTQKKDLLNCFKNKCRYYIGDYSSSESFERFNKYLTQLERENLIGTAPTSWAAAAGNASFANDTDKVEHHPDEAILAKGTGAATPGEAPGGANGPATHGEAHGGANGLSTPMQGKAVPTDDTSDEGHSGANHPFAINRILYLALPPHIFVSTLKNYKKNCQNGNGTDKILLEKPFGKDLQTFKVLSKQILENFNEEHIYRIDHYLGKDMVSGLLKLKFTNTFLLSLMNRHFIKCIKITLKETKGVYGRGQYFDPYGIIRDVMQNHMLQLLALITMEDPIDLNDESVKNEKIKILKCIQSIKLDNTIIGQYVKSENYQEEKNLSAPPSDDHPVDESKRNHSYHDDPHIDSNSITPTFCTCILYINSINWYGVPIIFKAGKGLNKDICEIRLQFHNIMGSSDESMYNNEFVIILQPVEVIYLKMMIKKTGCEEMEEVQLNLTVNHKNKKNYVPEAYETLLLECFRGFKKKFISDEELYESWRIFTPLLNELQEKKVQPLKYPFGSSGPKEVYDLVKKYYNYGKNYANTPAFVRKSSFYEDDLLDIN
To identify potential inhibitors of PvG6PD, compounds with already known effects on PfGluPho (ellagic acid and derivatives, ML304) were tested. Additionally, several compound libraries of the Helmholtz Center for Infection Research, Brunswick, were screened against PfGluPho using the high-throughput-compatible assay systems described in Preuss et al.. […] Based on structure-activity relationship studies, a set of new potential G6PD inhibitors (Fig. 8) was then synthesized and assessed. First, the IC50 values of the compounds were determined, followed by mechanistic characterization of the mode of action. To test for selectivity of the compounds, the IC50 values of the compounds on PvG6PD, PfGluPho, and hG6PD were determined in parallel.
All measurements were performed in 96-well plates, half area (Greiner Bio-One, Frickenhausen, Germany) using a Tecan Infinite M200 plate reader (Maennedorf, Switzerland). The compounds were dissolved in 100% DMSO and afterwards diluted in assay buffer to the required concentrations. Different compound concentrations were added to a mixture of enzyme and NADP^+ in assay buffer. Concentrations of substrates differed depending on the enzyme; an overview is given in the Additional file 4. The reaction was started by adding G6P, and the increase of NADPH was monitored by measuring the absorbance at 340 nm. To increase the sensitivity of the assay, some measurements were reproduced, detecting the fluorescence of NADPH at ex340/em460. […] A negative control containing no compound was defined as 0% inhibition; a positive control lacking the substrate G6P was defined as 100% inhibition. For evaluations using GraphPad Prism and Microsoft Excel, only a linear increase in absorbance/fluorescence was considered. For the mechanistic characterization of the compounds, either NADP^+ or G6P were titrated at different compound concentrations around the IC50, while keeping the second substrate in saturation. The initial slope was plotted as Michaelis–Menten curves and Lineweaver–Burk plots using GraphPad Prism; KM values and Vmax were calculated with GraphPad Prism software.

Another data set relates to Plasmodium gametocytes. The settings on record: cited from earlier work.
Another data set addresses T2, recombinant hGrx1-roGFP2 (Homo sapiens, UniProt P35754).
T2 construct: made in house
In words: In vitro interaction with recombinant hGrx1-roGFP2 probe. The format is biochemical. As to conditions: at the concentrations used in this study. How it is done:
The sensor hGrx1–roGFP2 (human glutaredoxin 1-reduction–oxidation sensitive green fluorescent protein 2) was recently transiently expressed in 3D7 P. falciparum parasites by using the pARL1a(+) expression vector. Heterologous overexpression of hGrx1–roGFP2 for the evaluation of the in vitro interactions of ML304 and anti-malarial drugs with the recombinant redox probe was performed according to [35].
ML304 was used at concentrations of 10 nM to 1 mM in degassed standard reaction buffer (100 mM potassium phosphate, 1 mM EDTA, pH 7.0). […] The characterization of the in vitro interaction of hGrx1–roGFP2 with ML304 was performed according to Schuh et al..

For data set [4], the system named is cytosolic H2O2 levels of NF54-attB. Set-up: method as in PMID 28874682. As to conditions: roGFP2-Orp1 probe, NF54-attB blood stages; cited from earlier work.

Where “and” joins values, the source holds several entries; their conditions need not be identical. Identical values can stand only once. Like-named read-outs stand apart in the source and are kept apart here.

With `CCN1CCC[C@@H]1CNC(=O)c1ccc2c(c1)NC(=O)c1cccc(C)c1S2` [ML304], in the data set on P. falciparum 3D7 [1], it took 0.471 ± 0.0395 µM to reach a half-maximal effect (EC50). In addition, the “LD50 against human hepatocyte cell lines” value in data set [2] is above 50 µM. In addition, the “Active concentration on P. falciparum 3D7 in cell culture” value in the data set on P. falciparum 3D7 [3] is given as “lower than 1 µM”. Also, the IC50 (in general, the concentration needed to halve the response being measured) at hG6PD was 80 µM and > 80 µM; on PvG6PD (substrate saturation (800 µM G6P, 200 µM NADP+)), 15.3 ± 0.9 µM; on PvG6PD (substrates close to KM (85 µM G6P, 15 µM NADP+)) it was 2.6 ± 0.8 µM. Also, the “Type of inhibition of PvG6PD towards G6P” value on PvG6PD (G6P titrated) is reported as “competitive inhibitor”. Also, on PvG6PD (NADP+ titrated), the “Type of inhibition of PvG6PD towards NADP+” value was “mixed type inhibitor”. Besides, the inhibitory constant (Ki) (commonly a measure of affinity in units of concentration, obtained from inhibition or displacement) at PvG6PD (competitive towards G6P, read-out: Ki on PvG6PD towards G6P) was found to be 0.7 ± 0.3 µM; on PvG6PD (mixed type towards NADP+, read-out: Ki on PvG6PD towards NADP+) it was 16.3 ± 8.8 µM. Besides, in the data set with Plasmodium gametocytes, the “Effect on viability of Plasmodium gametocytes” value is listed as “strongly impair the viability”. For the same compound, the “Interaction with methylene blue on late stage gametocytes” value in the data set on Plasmodium gametocytes is recorded as “synergistic effects”. At recombinant hGrx1-roGFP2, the “Direct interaction with recombinantly purified hGrx1-roGFP2 probe” value was “excluded a direct interaction”. Further, in data set [4], the “Effect on cytosolic H2O2 levels” value is given as “significantly increase”.
